Earlier results, collected in patent US10603302B2, “Water soluble flavonoids” (priority 2017, dated 2020).

Settings: background statement

solubility in water: slightly soluble in water
SMILES: O=C1c2c(O)cc(O)cc2OC(c2ccc(O)c(O)c2)C1O (stereo not shown) [Taxifolin, 5,7,31,41-tetrahydroxyflavanol,dihydroquercetin]
